In patent publication US12551460B2, “Methods and compositions comprising cationic lipids for stimulating type 1 interferon genes” (PDS BIOTECHNOLOGY COPORATION, priority 2017, dated 2026):
Entries after “also recorded” stand apart in the source; their conditions may differ.

How the values were obtained:
CD69 = CD69 expression on CD3+ T cells in draining lymph nodes (flow cytometry); type: in vivo, C57BL/6J mice or IFNAR−/− mice; conditions: 24 hr
Method: (§1) The data in FIG. 3 corresponds to an experiment wherein A) C57BL/6J mice (n=3) were injected with 50 μl of 6 mM R-DOTAP or 280 mM Sucrose subcutaneously in the foot pads. At indicated times popliteal draining lymph nodes from each mouse were isolated and single suspensions of lymph nodes were enumerated using hemocytometer to obtain total cell numbers. B) C57BL/6J (n=3) or IFNAR−/− (n=3) mice were injected with 50 μl of 6 mM R-DOTAP or 280 mM sucrose in the foot pad and draining popliteal lymph nodes were harvested from each mouse and enzymatically digested lymph nodes were assessed for the total cell number at 24 hr (B) using hemocytometer and expression of CD69 on CD3+ T cells (B) was assessed using flowcytometry. A-B) data represent total number of cells in each draining lymph node. C) Data represent percent CD69+ cells each group 24 hr after vaccination (n=3 mice per group).
IFN reporter cell assay and Cell phenotypic analysis: For detecting IFN, the supernatants from type I IFN producing cells were added to B16-Blue™ IFN-α/β Cells in a 96 well plate. After 24 hr incubation, the supernatants were assayed for SEAP activity using QUANTI-Blue™ reagent (InvivoGen, USA) according to manufacturer's instructions. Briefly, 50 μl of cell supernatants containing SEAP was mixed with 150 μl QUANTI-Blue™ reagent and incubated for 3-4 hr at 37° C. and absorbance was measured at 650 nm using a spectrometer. The concentrations of type I IFN in test samples were quantified using a standard curve generated from recombinant type I IFNβ treated B16-Blue™ IFN-α/β Cells in the same assay. To measure CD69 expression, single cell suspensions of lymph nodes were stained with fluorochrome conjugated CD3, and CD69 and percent CD69+CD3+ T cells in each draining lymph node were measured using flowcytometry.
To further understand the effect and ability of cationic lipids to activate the type I interferons, C57BL/6J mice or IFNAR−/− mice were injected with 50 μl of 6 mM R-DOTAP nanoparticles or 6 mM S-DOTAP or 280 mM sucrose subcutaneously in the foot pads. […]

type I interferon genes [1] = test: Inflammatory gene expression in sorted CD11c+ cells of draining lymph nodes (nCounter mouse inflammation kit, nanostring); type: in vivo, C57BL/6J mice
Method: The data in FIG. 1 corresponds to an experiment wherein C57BL/6J mice (n=4) were injected with 100 μl of 12 mM R-DOTAP liposome nanoparticles subcutaneously behind the neck. Mice injected with PBS, and LPS (50 μg/mouse) (24 h time point) were used as negative and positive controls respectively. 4 h or 24 hr after injection, axillary and brachial draining lymph nodes from each mouse were pooled and processed by collagenase digestion. CD11c positive cells (˜20,000 cells) in these lymph node cell suspensions were sort-purified and lysed in RLT buffer and processed for relative gene expression analysis using nCounter® mouse inflammation kit and nanostring technologies.
(§2) RNA isolation, Nano string Analysis, and gene expression assay: For gene expression analysis, draining popliteal lymph nodes (n=4) were enzymatically digested using cell dissociation cocktail for 60 min at 37° C., and single cell suspensions were used to sort CD11c+ ells using Sony SY3200 cell sorter. Sort purified CD11c+ cells (25K cells) were lysed in Qiagen's RLT cell lysis buffer (Qiagen, USA) and total RNA was isolated using Qiagen total RNA isolation kit (Qiagen, USA). Total RNA obtained was sent to University of Kentucky genomics core laboratory (Lexington, KY) where total RNA was mixed with Ncounter™ mouse inflammation panel (Nano String Technologies, Seattle, WA) which can measure over 547 genes involved in immune response. Binding of mRNA was detected with Nanso String nCounter analysis system, and raw count data was normalized and statistically analyzed using SAS program by UK genomics core laboratory. For confirmation studies using RT-PCR, the lymph nodes were directly lysed in RLT cell lysis buffer, and the total isolation RNA was reverse transcribed to cDNA using QuantiTect reverses transcription kit (Qiagen, USA). The cDNA was then amplified using TaqMan gene expression system (Applied biosystems, USA) to detect and quantify mouse IFNα and IFNβ transcripts relative to GAPDH expression using quantitative PCR reaction.
To assess cationic nanoparticle induced gene expression, C57BL/6J mice were injected with 100 μl of 12 mM R-DOTAP nanoparticles subcutaneously behind the neck, and inflammatory gene expression in draining lymph nodes analyzed 4 or 24 hours post vaccination. Mice injected with PBS, and LPS (50 μg/mouse) (24 h time point) were used as negative and positive controls respectively. 4 h or 24 hr after injection, axillary and brachial draining lymph nodes from each mouse were pooled and processed by collagenase digestion. Activated dendritic cells (CD11c^+) cells in the lymph node cell suspensions were sort-purified and lysed in RLT buffer and processed for relative gene expression analysis using nCounter® mouse inflammation kit and nanostring technologies.

draining lymph nodes = test: Cell recruitment: size and total cell number of draining lymph nodes; type: in vivo, C57BL/6J mice or IFNAR−/− mice
Method: as §1
To further understand the effect and ability of cationic lipids to activate the type I interferons, C57BL/6J mice or IFNAR−/− mice were injected with 50 μl of 6 mM R-DOTAP nanoparticles or 6 mM S-DOTAP or 280 mM sucrose subcutaneously in the foot pads. 24 hr after injection, popliteal draining lymph nodes from each mouse were isolated and single cell suspensions of lymph nodes were stained with fluorochrome conjugated CD3 and CD69. […] Type I IFN is known to inhibit lymphocyte egress from lymphoid organs through the up-regulation of CD69 which, in turn, inhibits the sphingosine 1 phosphate receptor required for lymphocyte egress. We therefore postulated that injection of both S-DOTAP and R-DOTAP would result in the upregulation of CD69 in the DLN. […] The data represents % CD69+CD3+ T cells in each draining lymph node.

type I interferon genes [2] = test: IFNα and IFNβ gene expression in popliteal draining lymph nodes (Taqman gene expression assay, RT-PCR); type: in vivo, C57BL/6J mice; conditions: 50 μl of 6 mM nanoparticles s.c. foot pads; popliteal DLN; 3 h or 24 h
Method: The data in FIG. 2 corresponds to an experiment wherein C57BL/6J mice (n=2) were injected with 50 μl of 6 mM R-DOTAP or S-DOTAP nanoparticles subcutaneously in the foot pads. Mice injected with PBS, and LPS (50 μg/mouse) (24 h time point) were used as negative and positive controls respectively. 3 h or 24 hr after injection, popliteal draining lymph nodes from each mouse were pooled and lysed in RLT buffer and processed for relative gene expression analysis using Taqman gene expression assay and RT-PCR.
as §2, with “Total RNA obtained was sent to University of Kentucky genomics core laboratory (Lexington, KY) where total RNA was mixed with Ncounter™ mouse inflammation panel (Nano String Technologies, Seattle, WA) which can measure over 547 genes involved in immune response.” left out, “The cDNA was then amplified using TaqMan gene expression system (Applied biosystems, USA) to detect and quantify mouse IFNα and IFNβ transcripts relative to GAPDH expression using quantitative PCR reaction.” left out

[3] = wild type mice, 50 μl of 6 mM s.c. foot pads

| SMILES | CD69 expression in DLN T cells (CD69; IFNαR knock-out mice) | CD69 expression in DLN T cells (CD69; [3]) | Expression of IFN-1α and IFN-1β, increase relative to LPS positive control (type I interferon genes [1]; 100 μl of 12 mM nanoparticles s.c. behind the neck, CD11c+ cells of axillary and brachial DLN, 4 or 24 h, LPS 50 μg/mouse) | Expression of several inflammatory genes (type I interferon genes [1]; 100 μl of 12 mM s.c., both time points (4 h, 24 h)) | Expression of other genes including Cxc110 (type I interferon genes [1]; 100 μl of 12 mM s.c., compared with LPS) | Type I interferon gene expression (nanostring) (type I interferon genes [1]; FIG. 1, mean of 4 mice) | DLN size (draining lymph nodes; 50 μl of 6 mM s.c. foot pads, without antigen, wild type mice) | Increase in total cell number in DLN in IFNαR knock-out mouse versus wild type (draining lymph nodes; IFNαR knock-out mouse, 24 hr) | Total cell number in DLN (draining lymph nodes; wild type mice, over a 7-day period) | Type I interferon (IFNα, IFNβ) gene expression, RT-PCR (type I interferon genes [2]) |
| --- | --- | --- | --- | --- | --- | --- | --- | --- | --- | --- |
| CCCCCCCC/C=C\CCCCCCCC(=O)OC[C@@H](C[N+](C)(C)C)OC(=O)CCCCCCC/C=C\CCCCCCCC [R-DOTAP, (R)-1,2-dioleoyl-3-trimethylammonium propane] | no CD69 upregulation | up-regulation of CD69 most strongly in T cells | greater than 5 fold | significantly alter | significantly increased and more comparable to levels induced by LPS | up-regulation | visible increase | greatly reduced | steady increase | strong inducers; also recorded: up-regulation |
| CCCCCCCC/C=C\CCCCCCCC(=O)OCC(C[N+](C)(C)C)OC(=O)CCCCCCC/C=C\CCCCCCCC (stereo not drawn) [S-DOTAP, 1,2-dioleoyl-3-trimethyl ammonium-propane] |  | up-regulation of CD69 most strongly in T cells |  |  |  |  |  |  |  | strong inducers; also recorded: up-regulation |
